The source of these data is ChEMBL document CHEMBL1151812, “Homotyrosine-containing cyanopeptolins 880 and 960 and anabaenopeptins 908 and 915 from Planktothrix agardhii CYA 126/8” (J Nat Prod, 2009).

Assay [1] can be described thus: Inhibition of chymotrypsin up to 100 ug/ml.
The nature of assay [2]: Inhibition of trypsin up to 100 ug/ml.
The target of assay [3] is T1, Carboxypeptidase A1 (Homo sapiens) (UniProt P15085).
T1 sequence (whole entry): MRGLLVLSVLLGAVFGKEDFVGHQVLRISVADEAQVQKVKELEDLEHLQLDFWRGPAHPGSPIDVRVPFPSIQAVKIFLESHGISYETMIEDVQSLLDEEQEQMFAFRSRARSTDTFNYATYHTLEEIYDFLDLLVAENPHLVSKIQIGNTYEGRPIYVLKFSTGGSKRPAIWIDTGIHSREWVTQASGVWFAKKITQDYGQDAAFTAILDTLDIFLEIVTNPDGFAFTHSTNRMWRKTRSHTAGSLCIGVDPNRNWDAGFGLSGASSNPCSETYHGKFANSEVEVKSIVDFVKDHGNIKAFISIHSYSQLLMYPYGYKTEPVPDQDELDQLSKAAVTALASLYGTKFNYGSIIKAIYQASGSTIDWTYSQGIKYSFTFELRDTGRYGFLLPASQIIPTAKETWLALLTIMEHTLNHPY
Put plainly: Inhibition of carboxypeptidase A up to 20 ug/ml.

For the next assay, the target named is T2, Carboxypeptidase A1 (Homo sapiens, UniProt P15085).
T2 sequence (P15085 whole entry): T1 sequence (whole entry)
As to the kind of experiment: Inhibition of carboxypeptidase A.

Calls of active or inactive are those of the source. No cut-off for these calls is given here. Numbered stars: 1 amine (or outer) side, 2 acyl side, 3 side chain; on linkers, the order of the positions; unused ones are H or OH. Bridge positions count the residues as written; N and C are the ends. Square brackets hold non-standard residues; d marks the D form. Peptide text beside a SMILES is read from it. NMehTyr = CN[C@@H](CCc1ccc(O)cc1)C(=O)O; hTyr = N[C@@H](CCc1ccc(O)cc1)C(=O)O; CO = O=C([*:1])[*:2]

With `CC[C@H](C)[C@@H]1NC(=O)[C@H](CCc2ccc(O)cc2)N(C)C(=O)[C@H](CCc2ccc(O)cc2)NC(=O)[C@H](C(C)C)NC(=O)[C@H](NC(=O)N[C@@H](CCCNC(=N)N)C(=O)O)CCCCNC1=O` ({Arg-CO}-[dK]V[hTyr][NMehTyr]I; lactam 1-C), the result in assay [1], in assay [2] and in assay [3] was inactive.

Turning to `CC[C@H](C)[C@@H]1NC(=O)[C@H](CCc2ccc(O)cc2)N(C)C(=O)[C@H](CCc2ccc(O)cc2)NC(=O)[C@H](C(C)C)NC(=O)[C@H](NC(=O)N[C@@H](Cc2ccc(O)cc2)C(=O)O)CCCCNC1=O` [ANABAENOPEPTIN 915] ({Tyr-CO}-[dK]V[hTyr][NMehTyr]I; lactam 1-C), the outcome in assay [1] and in assay [2] was inactive. Also, on Carboxypeptidase A1, the IC50 is 0.131 µM.
